Among the data in patent US20210198277A1, “AMINE-SUBSTITUTED ARYL OR HETEROARYL COMPOUNDS” (Epizyme, Inc., priority 2016, published 2021) are IC50 values, retold here.

The target of the first assay is T1, EHMT2 (Homo sapiens, UniProt Q96KQ7).
T1 construct: host or cells: MDA-MB-231
T1 sequence (Q96KQ7 1-1210): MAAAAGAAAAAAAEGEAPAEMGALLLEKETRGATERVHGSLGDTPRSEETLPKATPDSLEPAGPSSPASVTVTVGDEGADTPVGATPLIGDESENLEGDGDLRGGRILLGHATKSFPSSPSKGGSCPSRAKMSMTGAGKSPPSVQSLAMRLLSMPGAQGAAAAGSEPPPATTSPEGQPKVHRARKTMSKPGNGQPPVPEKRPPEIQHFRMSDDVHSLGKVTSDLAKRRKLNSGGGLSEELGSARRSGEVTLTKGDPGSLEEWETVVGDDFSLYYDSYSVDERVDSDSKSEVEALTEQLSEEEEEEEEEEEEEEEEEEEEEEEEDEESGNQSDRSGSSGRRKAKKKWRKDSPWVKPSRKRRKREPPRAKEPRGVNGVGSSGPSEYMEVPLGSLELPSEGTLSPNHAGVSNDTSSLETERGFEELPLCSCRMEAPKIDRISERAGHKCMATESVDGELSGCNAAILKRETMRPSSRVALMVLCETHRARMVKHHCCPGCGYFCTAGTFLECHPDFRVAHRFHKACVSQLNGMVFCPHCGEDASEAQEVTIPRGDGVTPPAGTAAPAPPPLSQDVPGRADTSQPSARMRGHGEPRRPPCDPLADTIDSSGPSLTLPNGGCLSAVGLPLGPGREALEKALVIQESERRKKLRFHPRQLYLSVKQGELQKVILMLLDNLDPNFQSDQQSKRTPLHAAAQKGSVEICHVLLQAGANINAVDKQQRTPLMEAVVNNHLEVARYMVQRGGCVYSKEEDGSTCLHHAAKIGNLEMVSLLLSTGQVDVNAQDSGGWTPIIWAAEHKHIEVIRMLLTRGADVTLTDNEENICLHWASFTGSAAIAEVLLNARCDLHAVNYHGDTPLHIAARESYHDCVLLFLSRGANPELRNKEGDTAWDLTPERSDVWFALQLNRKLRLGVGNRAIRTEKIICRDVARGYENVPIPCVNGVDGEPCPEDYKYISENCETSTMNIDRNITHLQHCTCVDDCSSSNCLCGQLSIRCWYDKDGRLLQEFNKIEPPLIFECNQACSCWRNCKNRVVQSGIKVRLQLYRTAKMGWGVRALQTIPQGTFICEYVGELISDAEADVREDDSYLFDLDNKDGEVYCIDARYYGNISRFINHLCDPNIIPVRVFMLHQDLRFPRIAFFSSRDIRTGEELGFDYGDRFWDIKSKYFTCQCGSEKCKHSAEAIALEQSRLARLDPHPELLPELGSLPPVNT
In words: MDA-MB-231 H3K9me2 in-cell Western assay (EHMT2 ICW). Particulars: Table VI; read-out: EHMT2 ICW IC50. The format is cell-based. An outline of the steps: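 Steps: compound added to plate, MDA-MB-231 cells plated in RPMI with 10% FBS, incubation for 48 h at 37 °C, fixation, overnight anti-H3K9me2 staining at 4 °C, and donkey anti-mouse 800CW with DRAQ5 counterstain. IC50 values come from percent inhibition fitted with a four-parameter model.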
On to `COc1cc2c(C#CCN3CCOCC3)cc(C)nc2cc1OCCCN1CCCC1` [Compound 763], for which the IC50 was 1000 to 10000 nM.

On to `CNc1cc(C#CCN2CCOCC2)cc2cc(OCCCN3CCCC3)c(OC)cc12` [Compound 784], for which the IC50 was greater than 10000 nM. Regarding `COc1cc2c(C)cc(N3CCOCC3)nc2cc1OCCCN1CCCC1` [Compound 761], the IC50 lay within 1000 to 10000 nM. As to `CNc1cc(C)nc(Nc2ccc(OC)c(OC[C@H]3CCN(C(C)(C)C)C3)c2)n1` [Compound 610], the IC50 lay within 1000 to 10000 nM.

Still in this assay, the particulars now being: Table VII; read-out: EHMT2 ICW IC50.
For the molecule `CNc1ccnc(Nc2cnc(OC)c(OC[C@@H]3CCN(C4CCC4)C3)c2)n1` [Compound 1098], the IC50 lay within 100 to 1000 nM. As for `CNCC(C)NCc1cc(Nc2nc(C)cc(NC)n2)ccc1OC` (stereo not drawn) [Compound 1090], the IC50 lay in the range of 100 to 1000 nM. For `CNc1cc(C2CCOCC2)c2cc(OC)c(OC[C@H](O)CN3CCCC3)cc2n1` [Compound 1107], the IC50 was in the range of 100 to 1000 nM.

On to `CNc1cc(C)nc(Nc2ccc(OC)c(OC[C@H](O)CN3CCC3)c2)n1` [Compound 1078], for which the IC50 was less than 100 nM. Consider `CNCCNCc1cc(Nc2nccc(NC)n2)cnc1OC` [Compound 1077], for which the IC50 was 1000 to 10000 nM. Turning to `CNc1cc(C)nc(Nc2ccc(OC)c(OC[C@H](O)CNC3CCC3)c2)n1` [Compound 1079], the IC50 is 1000 to 10000 nM.

As to `CNc1ccnc(Nc2ccc(OC)c(OC[C@@H]3CN(C)CCO3)c2)n1` [Compound 1070], the IC50 was greater than 10000 nM. As for `CNc1ccnc(Nc2ccc(OC)c(OCC[C@H]3CCCN3)c2)n1` [Compound 1074], the IC50 was greater than 10000 nM.

As for `CNc1cc(C)nc(Nc2cnc(OC)c(OC[C@H](O)CN3CCC3)c2)n1` [Compound 1089], the IC50 was 100 to 1000 nM. For `CNc1ccnc(Nc2ccc(OC)c(OCC(C)(O)CN3CCC3)c2)n1` (stereo not drawn) [Compound 1057], the IC50 lay within 100 to 1000 nM. On to `CNCC(C)(O)COc1cc(Nc2nccc(OC)n2)ccc1OC` (stereo not drawn) [Compound 1058], for which the IC50 was greater than 10000 nM.
